# Data: US10827753B2, “Compositions and methods for controlling nematodes” (Monsanto Technology LLC, priority 2007, dated 2020)
# Marks after values point to notes of the source that are not given here.
# Experiments:
# [1] = system: CD-1/Swiss derived albino mice; type: in vivo; settings: 500 mg/kg oral, three female mice, observed up to 14 days
# Procedure: Acute oral toxicity testing was performed in mice in accordance with test method P203.UDP, as administered by Eurofins/Product Safety Laboratories (Dayton, N.J.). CD-1/Swiss derived albino mice were obtained and group housed in suspended solid bottom caging. The mice were fed rodent chow and filtered tap water was supplied ad libitum. Following acclimation to the laboratory setting, a group of animals was fasted overnight by removing food from the cages. After the fasting period, three female mice were selected based on vitality and initial body weights. The individual compound doses were calculated from these body weights.
# The test substance was prepared as a 1% (50 mg/kg) or 5% (500 mg/kg) weight to weight (w/w) mixture in a 0.5% w/w solution of carboxymethylcellulose (CMC) in distilled water. A tissue homogenizer was used to create a homogeneous mixture. A dose of 50 or 500 mg/kg was administered to three healthy mice per dose level by oral intubation using a ball-tipped gavage needle attached to a syringe. After administration, the animals were returned to their cages, and feed was replaced immediately after dosing.
# Body weights were recorded prior to initiation and on Days 7 and 14 or a soon as possible after death.
# Meloidogyne incognita [2] = experiment: M. incognita miniaturized greenhouse assay on cucumber seedlings (root galling); type: in vivo; set-up: key to 1 ppm gall ratings / 1 ppm gall rating: mean of 3 gall ratings: 0=0-5%, 1=6-20%, 2=21-50%, 3=51-100% root galled; settings: for 1 ppm gall ratings: Table 1B test e
# Summary of the method: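 Compound in acetone/Triton X100 stock (5 mg/mL) diluted into water with 0.015% Triton X100 and applied to sand-planted sprouted cucumber seedlings; inoculated with 500 M. incognita eggs two days after planting. Roots harvested 10–12 days later; galling scored 0–3 by % root mass galled, averaged over triplicates, plus visual root phytotoxicity rating.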
# [3] = system: Meloidogyne incognita (RKN); experiment: Seed treatment test of root knot nematode on cucumber plants; type: in vivo
# Procedure: (§1) For a given concentration the chemical is dissolved in 500 ul of acetone and one gram of cucumber seed (RKN test) or soybean seed (SCN test) is added (e.g., 20 mg active ingredient in 500 ul acetone plus 1 gram of seed). The seed solutions are agitated until all seeds were thoroughly covered with the chemical solution. The acetone is then allowed to evaporate by air drying the seeds. The seeds are planted in 2-inch pots containing sandy soil and then the pots are inoculated with 1000 Meloidogyne incognita (RKN) or 1000 Heterodera glycines (SCN) eggs per pot three days after planting. Plants are rated for galling 14 days after egg inoculation for RKN or 28 days after egg inoculation for SCN.
# [4] = system: sting (Belonolaimus longicaudatus) nematodes; experiment: Sting nematode bench top soil assay; type: in vivo
# Procedure: Populations of sting (Belonolaimus longicaudatus) nematodes are maintained on St. Augustine turf grass on soil in 15-cm pots. At test initiation the turf is removed from the pots and the soil containing nematode eggs, juveniles, and adults is subdivided into pots each containing a volume of 125 cm^3′ The compounds to be tested are dissolved in 3 ml of acetone using 3, 6, or 15 mg to achieve equivalent surface area application rates of 2, 4, or 10 kg/ha, respectively. The 3 ml acetone stock solution is added to 30 ml of water, and 5 ml of that solution is used to drench each of 6 replicate test pots prepared as described above. The treated pots containing nematodes are incubated in the laboratory at ambient temperature of approximately 25° C. After 3 days the soil from each pot is washed onto a modified Baermann apparatus comprised of a screen supporting a layer of filter paper on which the soil sample is placed and set in a dish of water. The samples are then incubated at 25° C. for 24 hours to allow the live nematodes to migrate through the paper and screen and into a water reservoir to be collected for counting with a light microscope. Nematodes that have been killed or immobilized by the test compounds are not able to migrate into the reservoir.
# [5] = system: caspase-3 in rat hepatoma derived H4IIE cells; experiment: Caspase-3 activity (DEVD-AMC) after compound exposure in H4IIE cells; type: cell-based; settings: concentrations up to 300 μM
# Procedure: Caspase 3 cleaves the tetrapeptide between D and AMC, thus releasing the fluorogenic […] AMC. Following the test article exposure to cells in 96-well plates, medium was aspirated from plates and PBS added to each well. Plates were stored at −80° C. to lyse cells and store samples until further analysis. On the day of analysis, plates were removed from freezer and thawed. Caspase buffer with fluorescent substrate was added to each well and incubated at room temperature for one hour. AMC release was measured in a spectrofluorometer at an excitation wavelength of 360 nm and an emission wavelength of 460 nm. Values are expressed as relative fluorescent units (RFU).
# root knot nematode = experiment: Pre-plant incorporated (PPI) greenhouse test of root knot nematode on cucumber plants; type: in vivo, Meloidogyne incognita; settings: Meloidogyne incognita, fourteen day pre-plant incorporated, test b, read-out: percent control (galling reduction) relative to the control blank treatment; for pest or weed control at 4000 g/ha: 4 kg/ha rate; for pest or weed control at 8000 g/ha: 8 ka/ha rate
# Text: The PPI test examines the effect of pre-incorporation of compounds in soil and longer aging to simulate in furrow methods of nematicide application in the field. The PPI test exposes compounds to a higher volume of soil and drying which can result in more severe soil binding. Compounds are also aged for longer periods which can lead to more extensive biotic and abiotic degradation further limiting activity.
# The chemically treated soil (sandy soil mix) for all treatment days (e.g., 7 days, 14 days, 21 days) treatments is potted into their appropriate pots. On the same day the 7 day treatment pots are seeded. One week later eggs are applied and 14 days after egg application the test is harvested. The 14 day treatments are planted 7 days after the first planting. The 14 day planting and 7 day inoculation happen on the same day. One week later the 14 day treatments are inoculated with eggs. These are harvested 14 days after the inoculation. The 21 day treatments are planted 14 days after the first planting. The 14 day inoculation and 21 day planting are done on the same day. One week later the 21 day plants are inoculated with eggs. The 7 day treatment is harvested the same day as the 21 day inoculation. Fourteen days after inoculation the 21 day plants are harvested.
# For each compound a stock is prepared using 4 mg material in 4 ml of acetone. The soil is mixed by placing 80 ml of field soil and 320 ml of sand in a plastic bag and mixing well. The formulation for treatment is done by adding 2.13 ml (8 kg/ha rate), 1.06 ml (4 kg/ha rate) or 0.53 ml (2 kg/ha rate) to a vial and raising it with 10 ml in 0.05%×100. Soil is then treated by adding the entire 10 ml to the 400 ml of mix in the bag. The treated soil is immediately mixed well in the sealed bag to distribute the compound evenly. Approximately 95 ml is used to fill each 2-inch square pot up to the top with some soil compression and flattening. For each compound and for the control treatments 4 pots are filled. All pots are watered until moist but with no run-out through the bottom.
# The PPI test simulates 8, 4 and 2 kg/ha rates incorporated 15 cm deep in the field and is equivalent to the 2, 1 and 0.5 kg/ha drench application rates in the standard 2-inch pot cucumber greenhouse assay.
# Meloidogyne incognita [6] = experiment: Summer field evaluation of pre-plant incorporated compounds on squash; type: in vivo
# Summary of the method: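 PPI simulation: compound in acetone/Triton X-100 and water mixed into 80% sand/20% silt loam with chopped galled tomato roots, filling top 15 cm of 6 replicate field plots. M. incognita eggs/larvae (100 k per plot) injected 5 cm deep; three-week-old squash cv. Liberator III planted 4 days after treatment.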
# [7] = system: Heterodera glycines (SCN); experiment: Seed treatment test of soybean cyst nematode on soybean plants; type: in vivo; settings: test a
# Procedure: as §1
# mice = settings: cited from earlier work
compound,measurement,setting,value
Fc1ccc(-c2cnc(-c3cccs3)o2)cc1 [compound 4775],"mortality, signs of gross toxicity and behavioral changes",[1],"all animals survived, gained body weight, and appeared active and healthy"
same,8 ppm gall ratings,"Meloidogyne incognita [2]; 8 ppm, average of triplicate gall rating, scale 0-3 (% root mass galled)",0 (0=0-5%)
same,percent control (galling reduction) relative to the control blank treatment,"[3]; 20 mg ai/gram seed, cucumber seeds",77%
same,Number of nematodes recovered from treated soil after 3 days incubation with the compound,[4]; 2 kg/ha,15
same,Number of nematodes recovered from treated soil after 3 days incubation with the compound,[4]; 4 kg/ha,7
same,Number of nematodes recovered from treated soil after 3 days incubation with the compound,[4]; 10 kg/ha,4
Fc1cc(Cl)ccc1-c1cnc(-c2cccs2)o1 [compound 5915],1 ppm gall ratings,Meloidogyne incognita [2],0.33^e
same,induction of caspase-3 (apoptosis marker),[5],no induction of caspase-3
same,pest or weed control at 4000 g/ha,root knot nematode,70%
same,pest or weed control at 8000 g/ha,root knot nematode,99%
Cc1cc(Cl)ccc1-c1nsc(-c2ccco2)n1 [compound 5938],1 ppm gall ratings,Meloidogyne incognita [2],0.67^e
same,0-3 vigor 16 DAP,"Meloidogyne incognita [6]; 4 kg (kg/ha) PPI, squash",2.5
same,0-3 vigor 21 DAP,"Meloidogyne incognita [6]; 4 kg (kg/ha) PPI, squash",2.7
same,feeder root (3 = ave) 31 DAP,"Meloidogyne incognita [6]; 4 kg (kg/ha) PPI, squash",2.7
same,gall % 31 DAP,"Meloidogyne incognita [6]; 4 kg (kg/ha) PPI, squash",9%
same,root wgt (g) 31 DAP,"Meloidogyne incognita [6]; 4 kg (kg/ha) PPI, squash",24.1 g
same,top wgt (lbs) 31 DAP,"Meloidogyne incognita [6]; 4 kg (kg/ha) PPI, squash",1.60 lbs
same,total fruit (lbs),"Meloidogyne incognita [6]; 4 kg (kg/ha) PPI, squash",1.22 lbs
same,control of M. incognita (in words),Meloidogyne incognita [6]; PPI application at 4 kg/ha,excellent control
same,induction of caspase-3 (apoptosis marker),[5],no induction of caspase-3
same,pest or weed control at 4000 g/ha,root knot nematode,90%
same,pest or weed control at 8000 g/ha,root knot nematode,100%
abamectin,percent cyst reduction relative to control blank treatment,[7]; 0.375 mg al/gram seed,−14^a percent
same,percent cyst reduction relative to control blank treatment,[7]; 1.5 mg al/gram seed,−24^a percent
same,oral LD50 in mice,mice,13.6 mg/kg
same,percent control (galling reduction) relative to the control blank treatment,"[3]; 10 mg ai/gram seed, cucumber seeds (positive control)",84%
